Results from patent publication US20180312539A1, “METHODS FOR PREPARING HIGH THROUGHPUT PEPTIDOMIMETICS, ORALLY BIOAVAILABLE DRUGS AND COMPOSITIONS CONTAINING SAME” (University of Southern California, priority 2011, published 2018).

Columns and labels:
[1] = molecular target: T1, chymotrypsin (Bos taurus, UniProt P00766); test: Protease resistance experiment, chymotrypsin digest; type: in vitro ADME
T1 construct: purchased Sigma
Method: Immobilized chymotrypsin and proteinase K purchased from Sigma.
Protease resistance enhancement was then tested.
Towards that end, three peptides were synthesized. […] The effects were dramatic and surprising.

[2] = Human microsome digests; type: in vitro ADME
Method: Pooled, mixed gender human microsomes containing cytochrome P450's were obtained from Xenotech. 100 μL of microsomes were added to 500 of PBS buffer containing 250 nmoles of peptide with 1% DMSO. 50 μL aliquots were removed at various time points and worked up in the same manner as the human serum digests.
Another vital area for the in vivo processing of drugs is the liver. All blood is eventually filtered through the liver, where various types of enzymes functionalize drugs for the purpose of excretion. […] These enzymes are largely involved in the oxidation of drugs, and can be found on the […]. Human liver microsomes are functional liver extract containing cytochrome P450s. Therefore half-life of modification of peptides by cytochrome P450s from exposure to human microsomes was examined. The results were similar to the human serum result in that both cyclization and N-methylation were necessary for significant enhancement of resistance to modification. […] This is interesting because the trait of protease resistance, not resistance to cytochrome P450 modification was a selection criteria.
A similar experiment was performed analyzing protease resistance to cytochrome P450 degradation. Peptide was incubated with human liver microsomes at 37° C. All peptides were highly protease resistant. […]

[3] = molecular target: T1, chymotrypsin; test: Basic kinetic study with chymotrypsin (Km, Vmax); type: biochemical; conditions: relative to cycGIBP
From the text: Crystal structures of serine proteases such as chymotrypsin and proteinase K show a hydrogen bonding network from the protease to the backbone of their substrate at four amino acid positions. Applicants postulated that N-methylation would result in a steric clash between the substrate and protease, thereby inhibiting the ability of the protease to bind to the peptide. In enzyme kinetic terms, this would result in an enhancement of Km. Additionally, several experiments have shown that proteases such as chymotrypsin, will not cut all of their predicted digest sites equally. It has long been observed that secondary structure will have an effect on proteolysis of a protein. However, there are now several independent examples of peptides with, with no predicted secondary structure that have predicted protease digest sites that are not proteolyzed. Applicants suspect that there may be some local sequence context that is inhibitor for proteolysis. This sequence context may either make it harder for the protease to bind its substrate (Km), or it may make it more difficult for the protease to perform catalysis on the substrate (Vmax). To investigate the origin of these enhancements, Applicants conducted a basic kinetic study with chymotrypsin. Proteinase K digested GIBP too quickly for this type of analysis but could be utilized in other systems and with other peptides.

CSCC[C@@H]1NC(=O)CCCC(=O)NCCCC[C@@H](C(N)=O)NC(=O)[C@H](CO)NC(=O)[C@H](Cc2c[nH]c3ccccc23)NC(=O)[C@H](CCC(N)=O)NC(=O)[C@H](C)N(C)C(=O)[C@H](Cc2ccc(O)cc2)NC(=O)[C@H](CCC(=O)O)NC(=O)[C@H](Cc2ccc(O)cc2)NC(=O)[C@H](C)N(C)C(=O)[C@H](Cc2ccc(O)cc2)NC(=O)[C@H](Cc2ccccc2)NC1=O [cycSUPR]
fold more resistant to chymotrypsin ([1]; compared to CycGIBP): ~200 fold
digest sites found from chymotrypsin ([1]; five theoretical digest sites): two
resistance to cytochrome P450 degradation ([2]; human liver microsomes, 37° C (Experiment No. 4)): more preotease resistant than the Her-2 binding peptides
stability to human liver microsomes (cytochrome P450s) ([2]; versus cycGIBP or linSUPR): nearly an order of magnitude increase in stability
Km and Vmax of chymotrypsin digestion [3]: optimized for protease resistance relative to cycGIBP
